Laboratory results as given in publication PMC12073438, “Stereoselectivity of In Vivo Processes and Bioactivity of Farrerol Enantiomers” (Molecules, 2025).
pIC50: −log10 of the molar value.

How the values were obtained:
[1] = Stereoselective pharmacokinetics in rat liver tissue; type: in vivo, Sprague–Dawley rats; details: rat liver tissue; i.g. 40 mg/kg racemate, within 24 h
Description: (§1) Forty-two rats were divided randomly into seven groups (6 rats per time point at 0.5, 1, 2, 4, 8, 12, and 24 h) and were orally administered farrerol racemate at a dose of 40 mg/kg. Rats from each group were euthanized, and kidney and liver tissues were subsequently obtained. After washing three times using 0.9% sodium chloride solution, the attached blood and fat tissues were removed. Afterward, 0.5 g of the precisely weighed liver and kidney tissues were added to 1 mL 0.9% sodium chloride solution and homogenized in an ice bath. Subsequently, 150 µL of supernatant was transferred into a 2.0 mL EP tube for pre-treatment, in the same way as the pretreatment of plasma samples (see Section 3.4.1).
(§2) Stereoselective chromatographic analysis of farrerol enantiomers was conducted utilizing an ACQUITY UPLC I-Class UPLC system (Waters, Milford, MA, USA), which is equipped with a quaternary pump and an autosampler. The chiral separation was carried out employing a Chiralpak OJ-RH column (250 mm × 4.6 mm, 5 μm), which was obtained from Daicel Chemical Industries (Shanghai, China). The mobile phase consisted of ACN-H2O (60:40, v/v), and the constant flow rate was 0.5 mL/min. The column temperature was set at 25 °C, and the injection volume was 10 μL.
(§3) Mass detection was conducted using a triple quadrupole mass spectrometer (Waters Co., USA) equipped with an electrospray ionization (ESI) source. The detection of enantiomers and internal standards (IS) was carried out in multiple reaction monitoring (MRM) mode utilizing negative ionization. The m/z 299→179 for enantiomers and m/z 267→252 for IS were selected as detecting ions for quantitation. The collision energies (CE) were established at 22 eV and 20 eV, respectively. The primary mass spectrometry (MS) parameters were configured as follows: capillary voltage was set to 3.5 kV, ion source temperature was maintained at 150 °C, desolvation gas flow rate was 800 L/h, and the cone voltage (CV) was adjusted to 1.3 V.
(§4) Pharmacokinetic analysis was conducted utilizing the Drug and Statistics (DAS) 2.0 software provided by the Chinese Pharmacological Society. To assess the differences in pharmacokinetic parameters, the IC50 values of the evaluated CYP enzymes and the permeability coefficients between the two farrerol enantiomers, paired sample t-tests and independent sample t-tests were performed. Statistical significance was defined as * p < 0.05 and ** p < 0.01. All results are presented as mean values ± standard deviation (SD).

[2] = Stereoselective pharmacokinetics in rat kidney tissue; type: in vivo, Sprague–Dawley rats; details: rat kidney tissue; i.g. 40 mg/kg racemate, within 24 h
Description: as §1, §2, §3, §4

[3] = Stereoselective pharmacokinetics in rat plasma; type: in vivo, Sprague–Dawley rats
Description: The pharmacokinetic data were optimally characterized by a noncompartmental model. The mean concentration-time profiles for the farrerol enantiomers are illustrated in Figure 3, along with the corresponding key pharmacokinetic parameters presented in Table 2.
Twenty-five rats were randomly divided into five experimental groups (A, B, C, D, and E). Groups A and B received farrerol racemate via intragastric administration at doses of 150 mg/kg and 75 mg/kg, respectively. Group C was administered 4 mg/kg of farrerol racemate through caudal intravenous administration. […] Blood samples (300 μL) were obtained from the orbital venous plexus into heparinized tubes at various time points: 0.25, 0.5, 1, 2, 3, 5, 7, 9, 12, and 24 h following gavage administration, and at 0.083, 0.167, 0.25, 0.5, 1, 1.5, 2, 2.5, 3, and 5 h post-intravenous administration. Plasma was separated by centrifugation (3000 rpm, 10 min) and stored at −80 °C until analysis.
A total of 150 μL of plasma and 50 μL of the internal standard solution were added to a 1.5 mL EP tube and mixed using a vortex for 30 s. Subsequently, 500 μL of ether was introduced, and the mixture was vortexed for 5 min. Following centrifugation at 10,000 rpm for 10 min, the resulting organic layer was carefully transferred to a separate tube. Each sample underwent two extraction processes. The resulting ether layer was then evaporated to dryness using a continuous air stream at room temperature. A 250 μL aliquot of methanol was employed to re-dissolve the residue, utilizing vortex mixing for 2 min. Following centrifugation at 14,000 rpm for 10 min, the supernatant was subsequently injected into the HPLC-MS system for analysis.
as §2, §3, §4

CYP2C9 = CYP2C9 (Homo sapiens, UniProt P11712); assay: CYP inhibition in liver microsomes (diclofenac); details: CYP 2C9, marker substrate diclofenac
Description: A liver microsome working solution (20 mg/mL) contained potassium phosphate buffer (0.1 M, pH 7.4), hepatic microsomes and marker substrate solution, which phenacetin, diclofenic acid, S-mephenytoinwer, dextromethorphan, midazolam, coumarin and chlorzoxazone used as substrates for […], CYP2C9, CYP2C19, CYP2D6, CYP3A4/5, CYP2A6 and CYP2E1, respectively. In brief, 238.5 µL of liver microsome working solution was placed in a 1 mL EP tube. […] The reaction was started by injecting NADPH (1 mM), and the resulting mixture was incubated at 37 °C for 10 min. […] Each incubation was conducted in triplicate (n = 3).
An API 4000 LC/tandem mass spectrometry was used to analyze the concentration of metabolites of various chemical agents using a validated mode. An Atlantis T3 column (2.1 mm × 50 mm, 5 μm) was utilized, employing mobile phases consisting of a 0.1% formic acid solution (A) and a 0.1% acetonitrile formate solution (B). […] ESI was conducted in positive ion mode.

CYP3A4/5 = assay: CYP inhibition in liver microsomes (midazolam); details: human, microsomes, pH 7.4
Description: (§5) A liver microsome working solution (20 mg/mL) contained potassium phosphate buffer (0.1 M, pH 7.4), hepatic microsomes and marker substrate solution, which phenacetin, diclofenic acid, S-mephenytoinwer, dextromethorphan, midazolam, coumarin and chlorzoxazone used as substrates for […], CYP2C9, CYP2C19, CYP2D6, CYP3A4/5, CYP2A6 and CYP2E1, respectively. In brief, 238.5 µL of liver microsome working solution was placed in a 1 mL EP tube. […] The reaction was started by injecting NADPH (1 mM), and the resulting mixture was incubated at 37 °C for 10 min. After centrifuging at 4000 rpm for 15 min, the supernatant was transferred and analyzed using LC-MS/MS to detect the corresponding metabolites. Each incubation was conducted in triplicate (n = 3).
(§6) An API 4000 LC/tandem mass spectrometry was used to analyze the concentration of metabolites of various chemical agents using a validated mode. An Atlantis T3 column (2.1 mm × 50 mm, 5 μm) was utilized, employing mobile phases consisting of a 0.1% formic acid solution (A) and a 0.1% acetonitrile formate solution (B). […] As for the detection of CYP 2E1 metabolite, the Flow composition was as follows: 0–0.30 min, 10% B; 0.30–1.30 min, 10–55% B; 1.30–1.50 min, 55–95% B; 1.50–2.00 min, 95% B; 2.00–2.01 min, 95–10% B; the low rate was 0.85 mL/min. ESI was conducted in positive ion mode. MRM was utilized to quantify each metabolite, detecting the following transitions: m/z 152.1/110 for acetaminophen, 312.1/230.0 for 4′-Hydroxydiclofenac, 235.0/150.0 for 4′-hydroxymephentoin, 258.2/199.1 for Dextrorphan, 342.1/203.0 for 1′-hydroxymidazolam, 161.1/133.1 for hydroxycoumarin, and 184.0/120.0 for 6-hydroxyclozoxadone.

CYP1A2 = target: T1, CYP1A2 (Homo sapiens, UniProt P05177); assay: CYP inhibition in liver microsomes (phenacetin); details: CYP 1A2, marker substrate phenacetin
T1 sequence (P05177 1-516): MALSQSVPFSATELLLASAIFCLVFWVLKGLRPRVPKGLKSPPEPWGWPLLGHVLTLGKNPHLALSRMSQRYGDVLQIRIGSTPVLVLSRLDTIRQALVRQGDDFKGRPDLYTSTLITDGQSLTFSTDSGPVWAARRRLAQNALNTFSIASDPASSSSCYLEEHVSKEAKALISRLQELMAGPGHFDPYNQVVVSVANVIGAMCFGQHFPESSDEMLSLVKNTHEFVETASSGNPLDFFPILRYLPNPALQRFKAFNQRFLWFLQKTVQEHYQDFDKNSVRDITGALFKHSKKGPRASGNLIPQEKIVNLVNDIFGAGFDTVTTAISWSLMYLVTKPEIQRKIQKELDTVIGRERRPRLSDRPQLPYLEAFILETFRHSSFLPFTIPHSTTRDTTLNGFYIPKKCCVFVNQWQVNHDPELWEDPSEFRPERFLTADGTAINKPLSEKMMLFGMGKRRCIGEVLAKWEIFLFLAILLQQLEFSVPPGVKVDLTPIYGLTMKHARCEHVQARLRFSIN
Description: as §5, §6

CYP2A6 = target: T2, CYP2A6 (Homo sapiens, UniProt P11509); assay: CYP inhibition in liver microsomes (coumarin); details: CYP 2A6; marker substrate coumarin; liver microsomes
T2 sequence (P11509 1-494): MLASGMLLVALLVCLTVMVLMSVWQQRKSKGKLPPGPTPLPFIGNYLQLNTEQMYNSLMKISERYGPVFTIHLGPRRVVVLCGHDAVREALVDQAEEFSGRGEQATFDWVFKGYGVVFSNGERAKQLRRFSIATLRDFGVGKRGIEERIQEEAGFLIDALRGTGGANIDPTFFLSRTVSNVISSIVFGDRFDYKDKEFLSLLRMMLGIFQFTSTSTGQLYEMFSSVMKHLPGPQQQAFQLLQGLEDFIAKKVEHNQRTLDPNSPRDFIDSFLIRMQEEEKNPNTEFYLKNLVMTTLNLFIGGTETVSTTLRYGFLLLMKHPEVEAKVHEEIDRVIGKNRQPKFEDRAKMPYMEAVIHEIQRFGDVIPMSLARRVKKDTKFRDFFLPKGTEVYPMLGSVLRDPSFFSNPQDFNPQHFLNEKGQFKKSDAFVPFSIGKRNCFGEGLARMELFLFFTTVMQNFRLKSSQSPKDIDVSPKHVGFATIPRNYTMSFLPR
Description: as §5, §6

Sequence of CYP2C9 (P11712 whole entry): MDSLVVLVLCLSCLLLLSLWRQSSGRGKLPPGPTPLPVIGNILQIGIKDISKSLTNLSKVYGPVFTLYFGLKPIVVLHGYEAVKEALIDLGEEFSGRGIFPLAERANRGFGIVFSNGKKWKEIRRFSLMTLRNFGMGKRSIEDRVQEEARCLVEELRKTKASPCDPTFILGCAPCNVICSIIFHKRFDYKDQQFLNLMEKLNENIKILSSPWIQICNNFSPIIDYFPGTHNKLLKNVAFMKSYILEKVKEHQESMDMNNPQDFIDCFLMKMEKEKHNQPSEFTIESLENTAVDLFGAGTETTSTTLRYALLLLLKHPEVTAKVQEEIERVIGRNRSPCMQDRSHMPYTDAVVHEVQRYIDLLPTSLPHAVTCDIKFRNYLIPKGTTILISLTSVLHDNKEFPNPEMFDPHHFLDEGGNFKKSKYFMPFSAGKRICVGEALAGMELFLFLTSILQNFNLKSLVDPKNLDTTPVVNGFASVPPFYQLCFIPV

In the case of `Cc1c(O)c(C)c2c(c1O)C(=O)CC(c1ccc(O)cc1)O2` (racemic) [racemic farrerol, 2,3-dihydro-5,7-dihydroxy-2-(4-hydroxyphenyl)-6,8-dimethyl-4-benzopyrone], the “enantiomeric fraction (EF) = E(+)/(E(+)+E(−))” value (“enantiomeric fraction” below) [1] was “less than 0.5”, the “enantiomeric fraction” value [2] was “less than 0.5” and the “enantiomeric fraction” value ([3]; intravenous administration of racemate) was “around 0.7”. The “enantiomeric fraction” value ([3]; oral administration of racemate (all doses)) was “greater than 0.6” and the “enantiomeric fraction” value ([3]; oral dose of 75 mg/kg, approximately 1.5 to 24 h) was “around 0.8”.
`Nc1ccc(S(=O)(=O)Nc2ccnn2-c2ccccc2)cc1` [sulfaphenazole, reference compound] gave a pIC50 (CYP2C9) of 6.66.
For `CC(=O)N1CCN(c2ccc(OCC3COC(Cn4ccnc4)(c4ccc(Cl)cc4Cl)O3)cc2)CC1` (stereo not drawn) [ketoconazole, reference compound], the IC50 at 10 min (CYP3A4/5) was 10.4 nM.
With `O=c1cc(-c2ccccc2)oc2ccc3ccccc3c12` [β-naphthoflavone, reference compound] the pIC50 (CYP1A2) was 6.89.
Compound `N[C@@H]1C[C@H]1c1ccccc1` (racemic) [Tranylcypromine, reference compound] has a pIC50 (CYP2A6) of 6.42.
